Data on 26 compounds can be found in patent US9539260B2, “Dihydro-benzo-oxazine and dihydro-pyrido-oxazine derivatives” (Novartis AG, priority 2012, dated 2017).

Experiment [1] deals with PI3K alpha (Homo sapiens (Human), UniProt P42336). The experiment is described as follows: Enzymatic PI3K alpha isoform inhibition (lipid kinase activity, Kinase-Glo luminescence). It counts as biochemical. Particulars: Enzymatic assay. Summed up: (§1)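 IC50s derive from 4-parameter logistic fits of % inhibition across 8 concentrations (usually 10 to 0.003 μM). Lipid kinase reaction: PI3K (10 nM) plus phosphatidylinositol (5 μg/mL) started with 2 μM ATP, stopped near 50% ATP depletion; leftover ATP quantified by Kinase-Glo luminescence.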
PI3K alpha, sequence (P42336 other isoform, or with tags, fused parts or gaps): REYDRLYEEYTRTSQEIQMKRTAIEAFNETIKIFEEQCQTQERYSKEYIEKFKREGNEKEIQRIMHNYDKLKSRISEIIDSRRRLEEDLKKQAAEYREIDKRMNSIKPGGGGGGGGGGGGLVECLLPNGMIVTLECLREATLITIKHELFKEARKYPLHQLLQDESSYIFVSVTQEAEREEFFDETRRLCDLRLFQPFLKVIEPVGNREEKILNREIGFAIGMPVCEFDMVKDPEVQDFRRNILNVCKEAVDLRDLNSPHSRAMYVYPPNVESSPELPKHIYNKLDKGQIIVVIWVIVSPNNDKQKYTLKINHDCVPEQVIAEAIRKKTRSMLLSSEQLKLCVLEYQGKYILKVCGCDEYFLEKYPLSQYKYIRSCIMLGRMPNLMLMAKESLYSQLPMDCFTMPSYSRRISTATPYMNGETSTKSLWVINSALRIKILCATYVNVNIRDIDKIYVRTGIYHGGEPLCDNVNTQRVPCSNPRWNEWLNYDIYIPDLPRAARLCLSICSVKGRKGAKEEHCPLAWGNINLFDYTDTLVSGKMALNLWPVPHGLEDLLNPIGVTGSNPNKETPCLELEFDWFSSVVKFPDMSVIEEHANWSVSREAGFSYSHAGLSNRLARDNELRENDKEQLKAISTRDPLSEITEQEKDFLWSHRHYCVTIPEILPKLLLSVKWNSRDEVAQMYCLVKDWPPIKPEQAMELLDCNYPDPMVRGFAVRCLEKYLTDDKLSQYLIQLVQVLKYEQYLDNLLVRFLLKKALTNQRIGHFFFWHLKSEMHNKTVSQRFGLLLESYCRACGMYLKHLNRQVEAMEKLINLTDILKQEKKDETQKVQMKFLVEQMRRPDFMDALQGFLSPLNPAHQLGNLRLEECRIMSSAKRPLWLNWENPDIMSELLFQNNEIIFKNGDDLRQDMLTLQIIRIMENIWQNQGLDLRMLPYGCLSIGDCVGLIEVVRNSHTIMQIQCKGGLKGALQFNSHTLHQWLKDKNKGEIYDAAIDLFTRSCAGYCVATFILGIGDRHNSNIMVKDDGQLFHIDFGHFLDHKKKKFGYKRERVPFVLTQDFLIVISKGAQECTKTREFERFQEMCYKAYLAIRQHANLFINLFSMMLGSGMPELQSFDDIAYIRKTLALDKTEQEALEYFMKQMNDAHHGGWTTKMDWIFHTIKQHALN
A general note: Kinase-Glo measures the ATP left after a reaction by luminescence.

Experiment [2] deals with PI3K delta (Homo sapiens (Human), UniProt O00329). The experiment is described as follows: Enzymatic PI3K delta isoform inhibition (lipid kinase activity, Kinase-Glo luminescence). It counts as biochemical. Particulars: Enzymatic assay. The method in brief:
as §1

PI3K delta, sequence (O00329 other isoform, or with tags, fused parts or gaps linker GGGGGG): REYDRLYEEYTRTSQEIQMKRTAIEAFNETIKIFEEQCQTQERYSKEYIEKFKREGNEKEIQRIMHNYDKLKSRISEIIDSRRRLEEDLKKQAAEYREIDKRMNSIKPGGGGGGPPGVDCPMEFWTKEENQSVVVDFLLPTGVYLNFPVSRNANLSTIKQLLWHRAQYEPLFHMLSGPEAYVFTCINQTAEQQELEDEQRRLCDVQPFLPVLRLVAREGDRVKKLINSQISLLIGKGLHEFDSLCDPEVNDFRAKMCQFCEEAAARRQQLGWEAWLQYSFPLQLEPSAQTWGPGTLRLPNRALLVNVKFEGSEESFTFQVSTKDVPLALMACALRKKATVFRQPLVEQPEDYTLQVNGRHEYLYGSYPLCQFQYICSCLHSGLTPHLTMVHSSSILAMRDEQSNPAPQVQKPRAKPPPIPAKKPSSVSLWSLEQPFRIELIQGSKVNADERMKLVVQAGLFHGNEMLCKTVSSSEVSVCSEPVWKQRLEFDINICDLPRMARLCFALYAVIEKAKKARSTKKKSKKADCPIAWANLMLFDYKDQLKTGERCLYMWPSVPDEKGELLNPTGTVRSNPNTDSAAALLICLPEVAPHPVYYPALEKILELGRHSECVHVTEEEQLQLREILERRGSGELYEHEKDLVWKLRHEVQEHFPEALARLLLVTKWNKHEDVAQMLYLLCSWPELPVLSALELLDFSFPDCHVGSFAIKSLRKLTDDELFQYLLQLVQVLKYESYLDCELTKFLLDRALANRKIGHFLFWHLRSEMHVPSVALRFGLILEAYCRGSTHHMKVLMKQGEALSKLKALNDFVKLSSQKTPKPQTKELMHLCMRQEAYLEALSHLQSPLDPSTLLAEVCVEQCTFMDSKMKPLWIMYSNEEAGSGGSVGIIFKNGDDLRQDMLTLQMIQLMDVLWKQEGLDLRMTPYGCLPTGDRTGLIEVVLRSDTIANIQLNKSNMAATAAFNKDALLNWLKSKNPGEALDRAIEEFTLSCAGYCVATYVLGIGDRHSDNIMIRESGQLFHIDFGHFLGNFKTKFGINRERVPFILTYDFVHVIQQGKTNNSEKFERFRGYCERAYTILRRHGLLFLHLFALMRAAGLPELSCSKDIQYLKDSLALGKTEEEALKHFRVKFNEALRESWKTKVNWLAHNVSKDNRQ

For the compound `COc1ncc(N2CCOc3ccc(O[C@H]4CCN(C(=O)CS(C)(=O)=O)C4)cc32)cc1F` [Example B111, 1-{(S)-3-[4-(5-Fluoro-6-methoxy-pyridin-3-yl)-3,4-dihydro-2H-benzo[1,4]oxazin-6-yloxy]-pyrrolidin-1-yl}-2-methanesulfonyl-ethanone], the results for the IC50 in experiment [1] and in experiment [2] were 685 nM and 60 nM, respectively.

Consider `COc1ncc(N2CCOc3ccc(O[C@H]4CCN(C(=O)CCS(C)(=O)=O)C4)cc32)cc1F` [Example B112, 1-{(S)-3-[4-(5-Fluoro-6-methoxy-pyridin-3-yl)-3,4-dihydro-2H-benzo[1,4]oxazin-6-yloxy]-pyrrolidin-1-yl}-3-methanesulfonyl-propan-1-one], for which the IC50 came to 380 nM in experiment [1] and 26 nM in experiment [2].

Take `COc1ncc(N2CCOc3ccc(O[C@H]4CCN(C(=O)CCO)C4)cc32)cc1F` [Example B113, 1-{(S)-3-[4-(5-Fluoro-6-methoxy-pyridin-3-yl)-3,4-dihydro-2H-benzo[1,4]oxazin-6-yloxy]-pyrrolidin-1-yl}-3-hydroxy-propan-1-one]: the IC50 is 2730 nM in experiment [1] and 109 nM in experiment [2].

In the case of `COCCC(=O)N1CC[C@H](Oc2ccc3c(c2)N(c2cnc(OC)c(F)c2)CCO3)C1` [Example B114, 1-{(S)-3-[4-(5-Fluoro-6-methoxy-pyridin-3-yl)-3,4-dihydro-2H-benzo[1,4]oxazin-6-yloxy]-pyrrolidin-1-yl}-3-methoxy-propan-1-one], the IC50 in experiment [1] was 1440 nM; in experiment [2], 71 nM.

Turning to `COc1ncc(N2CCOc3ccc(O[C@H]4CCN(C(=O)CC#N)C4)cc32)cc1F` [Example B116, 3-{(S)-3-[4-(5-Fluoro-6-methoxy-pyridin-3-yl)-3,4-dihydro-2H-benzo[1,4]oxazin-6-yloxy]-pyrrolidin-1-yl}-3-oxo-propionitrile], the results for the IC50 in experiment [1] and in experiment [2] were 304 nM and 22 nM, respectively.

Consider `COc1ncc(N2CCOc3ccc(O[C@H]4CCN(C(=O)[C@H]5CC[C@H](O)CC5)C4)cc32)cc1F` [Example B117, {(S)-3-[4-(5-Fluoro-6-methoxy-pyridin-3-yl)-3,4-dihydro-2H-benzo[1,4]oxazin-6-yloxy]-pyrrolidin-1-yl}-(4-hydroxy-cyclohexyl)-methanone], for which the IC50 in experiment [1] was determined as 1210 nM; in experiment [2], 8 nM.

As to `COc1ncc(N2CCOc3ccc(O[C@H]4CCN(C(=O)[C@H]5CC[C@@H](O)CC5)C4)cc32)cc1F` [Example B118, {(S)-3-[4-(5-Fluoro-6-methoxy-pyridin-3-yl)-3,4-dihydro-2H-benzo[1,4]oxazin-6-yloxy]-pyrrolidin-1-yl}-(4-hydroxy-cyclohexyl)-methanone], the values for the half-inhibitory concentration (IC50) in experiment [1] and in experiment [2] were 498 nM and 10 nM, respectively.

As for `COc1ncc(N2CCOc3ccc(O[C@H]4CCN(C(=O)C5CCS(=O)(=O)CC5)C4)cc32)cc1C(F)F` [Example B119, {(S)-3-[4-(5-Difluoromethyl-6-methoxy-pyridin-3-yl)-3,4-dihydro-2H-benzo[1,4]oxazin-6-yloxy]-pyrrolidin-1-yl}-(1,1-dioxo-hexahydro-6-thiopyran-4-yl)-methanone], the 50% inhibitory concentration (IC50) was found to be 124 nM in experiment [1] and 6 nM in experiment [2].

In the case of `COc1ncc(N2CCOc3ccc(O[C@H]4CCN(C(=O)C5CCOCC5)C4)cc32)cc1C(F)F` [Example B120, {(S)-3-[4-(5-Difluoromethyl-6-methoxy-pyridin-3-yl)-3,4-dihydro-2H-benzo[1,4]oxazin-6-yloxy]-pyrrolidin-1-yl}-(tetrahydro-pyran-4-yl)-methanone], the half-maximal inhibitory concentration (IC50) in experiment [1] stood at 88 nM; in experiment [2], 6 nM.

As for `CCC(=O)N1CC[C@H](Oc2ccc3c(c2)N(c2ccc([S+]([O-])CC)nc2)CCO3)C1` (stereo partly drawn) [Example B121, 1-{(S)-3-[4-(6-Ethanesulfinyl-pyridin-3-yl)-3,4-dihydro-2H-benzo[1,4]oxazin-6-yloxy]-pyrrolidin-1-yl}-propan-1-one], the results for the IC50 in experiment [1] and in experiment [2] were 3360 nM and 75 nM, respectively.

In the case of `COc1ncc(N2CCOc3ccc(O[C@H]4CCN(C(=O)[C@@H]5CCN(C(C)=O)C5)C4)cc32)cc1C` [Example B122, 1-((R)-3-{(S)-3-[4-(6-Methoxy-5-methyl-pyridin-3-yl)-3,4-dihydro-2H-benzo[1,4]oxazin-6-yloxy]-pyrrolidine-1-carbonyl}-pyrrolidin-1-yl)-ethanone], the IC50 turned out to be 425 nM in experiment [1] and 24 nM in experiment [2].

Turning to `COc1ncc(N2CCOc3ccc(O[C@@H]4CCN(C(=O)C5CCOCC5)C4)cc32)cc1C#N` [Example C2, 2-Methoxy-5-{6-[(R)-1-(tetrahydro-pyran-4-carbonyl)-pyrrolidin-3-yloxy]-2,3-dihydro-benzo[1,4]oxazin-4-yl}-nicotinonitrile], the IC50 in experiment [1] is 1220 nM; in experiment [2] it was 243 nM.

Consider `CCC(=O)N1CC[C@@H](Oc2ccc3c(c2)N(c2ccc(OC)nc2)CCO3)C1` [Example C3, 1-{(R)-3-[4-(6-Methoxy-pyridin-3-yl)-3,4-dihydro-2H-benzo[1,4]oxazin-6-yloxy]-pyrrolidin-1-yl}-propan-1-one], for which the values for the half-inhibitory concentration (IC50) in experiment [1] and in experiment [2] were 3380 nM and 1210 nM, respectively.

As for `CCC(=O)N1CC[C@H](Oc2ccc3c(c2)N(c2ccc(OC)nc2)CCO3)C1` [Example C4, 1-{(S)-3-[4-(6-Methoxy-pyridin-3-yl)-3,4-dihydro-2H-benzo[1,4]oxazin-6-yloxy]-pyrrolidin-1-yl}-propan-1-one], the IC50 was 3000 nM in experiment [1] and 28 nM in experiment [2].

As for `COc1ncc(N2c3cc(O[C@H]4CCN(C(=O)C5CCOCC5)C4)ccc3OCC2C)cc1C#N` (stereo partly drawn) [Example C5, 2-Methoxy-5-{3-methyl-6-[(S)-1-(tetrahydro-pyran-4-carbonyl)-pyrrolidin-3-yloxy]-2,3-dihydro-benzo[1,4]oxazin-4-yl}-nicotinonitrile], the half-maximal inhibitory concentration (IC50) in experiment [1] came out at 5510 nM; in experiment [2] it was 95 nM.

In the case of `COc1ncc(N2c3cc(O[C@H]4CCN(C(=O)C5CCOCC5)C4)ccc3OCC2C)cc1C#N` (stereo partly drawn) [Example C6, 2-Methoxy-5-{3-methyl-6-[(S)-1-(tetrahydro-pyran-4-carbonyl)-pyrrolidin-3-yloxy]-2,3-dihydro-benzo[1,4]oxazin-4-yl}-nicotinonitrile], the half-maximal inhibitory concentration (IC50) in experiment [1] was found to be 4260 nM; in experiment [2], 181 nM.

On to `COc1ncc(N2CCOc3ccc(O[C@H]4CCN(C(=O)c5ccnn5C)C4)cc32)cc1C#N` [Example C8, 2-Methoxy-5-{6-[(S)-1-(2-methyl-2H-pyrazole-3-carbonyl)-pyrrolidin-3-yloxy]-2,3-dihydro-enzo[1,4]oxazin-4-yl}-nicotinonitrile], for which the concentration for half-maximal inhibition (IC50) in experiment [1] was determined as 374 nM; in experiment [2], 13 nM.

Turning to `COc1ncc(N2CCOc3ccc(O[C@H]4CCN(C(=O)c5ccno5)C4)cc32)cc1C#N` [Example C9, 5-{6-[(S)-1-(Isoxazole-5-carbonyl)-pyrrolidin-3-yloxy]-2,3-dihydro-benzo[1,4]oxazin-4-yl}-2-methoxy-nicotinonitrile], the IC50 in experiment [1] is 185 nM; in experiment [2], 6 nM.

On to `COc1ncc(N2CCOc3ccc(O[C@H]4CCN(C(=O)c5cn[nH]c5)C4)cc32)cc1C#N` [Example C10, 2-Methoxy-5-{6-[(S)-1-(1H-pyrazole-4-carbonyl)-pyrrolidin-3-yloxy]-2,3-dihydro-benzo[1,4]oxazin-4-yl}-nicotinonitrile], for which the results for the concentration for half-maximal inhibition (IC50) in experiment [1] and in experiment [2] were 147 nM and 15 nM, respectively.

As for `COc1ncc(N2CCOc3ccc(O[C@H]4CCN(C(=O)CS(C)(=O)=O)C4)cc32)cc1C#N` [Example C11, 5-{6-[(S)-1-(2-Methanesulfonyl-acetyl)-pyrrolidin-3-yloxy]-2,3-dihydro-benzo[1,4]oxazin-4-yl}-2-methoxy-nicotinonitrile], the half-inhibitory concentration (IC50) in experiment [1] was found to be 353 nM; in experiment [2], 23 nM.

As for `COc1ncc(N2CCOc3ccc(O[C@H]4CCN(C(=O)c5nnc(C)o5)C4)cc32)cc1C#N` [Example C12, 2-Methoxy-5-{6-[(S)-1-(5-methyl-[1,3,4]oxadiazole-2-carbonyl)-pyrrolidin-3-yloxy]-2,3-dihydro-benzo[1,4]oxazin-4-yl}-nicotinonitrile], the half-inhibitory concentration (IC50) came out at 303 nM in experiment [1] and 116 nM in experiment [2].

Regarding `COc1ncc(N2CCOc3ccc(O[C@H]4CCN(C(=O)c5cncnc5)C4)cc32)cc1C#N` [Example C13, 2-Methoxy-5-{6-[(S)-1-(pyrimidine-5-carbonyl)-pyrrolidin-3-yloxy]-2,3-dihydro-benzo[1,4]oxazin-4-yl}-nicotinonitrile], the IC50 in experiment [1] was determined as 667 nM; in experiment [2], 77 nM.

Consider `COc1ncc(N2CCOc3ccc(O[C@H]4CCN(C(=O)c5cncs5)C4)cc32)cc1C#N` [Example C14, 2-Methoxy-5-{6-[(S)-1-(thiazole-5-carbonyl)-pyrrolidin-3-yloxy]-2,3-dihydro-benzo[1,4]oxazin-4-yl}-nicotinonitrile], for which the half-inhibitory concentration (IC50) in experiment [1] came to 250 nM; in experiment [2], 5 nM.

On to `COc1ncc(N2CCOc3ccc(O[C@H]4CCN(C(=O)c5cnccn5)C4)cc32)cc1C#N` [Example C15, 2-Methoxy-5-{6-[(S)-1-(pyrazine-2-carbonyl)-pyrrolidin-3-yloxy]-2,3-dihydro-benzo[1,4]oxazin-4-yl}-nicotinonitrile], for which the IC50 in experiment [1] came out at 383 nM; in experiment [2], 17 nM.

Consider `COc1ncc(N2CCOc3ccc(O[C@H]4CCN(C(=O)c5cccnc5)C4)cc32)cc1C#N` [Example C16, 2-Methoxy-5-{6-[(S)-1-(pyridine-3-carbonyl)-pyrrolidin-3-yloxy]-2,3-dihydro-benzo[1,4]oxazin-4-yl}-nicotinonitrile], for which the results for the concentration for half-maximal inhibition (IC50) in experiment [1] and in experiment [2] were 478 nM and 15 nM, respectively.

Turning to `COc1ncc(N2CCOc3ccc(O[C@H]4CCN(C(=O)c5ccncc5)C4)cc32)cc1C#N` [Example C17, 2-Methoxy-5-{6-[(S)-1-(pyridine-4-carbonyl)-pyrrolidin-3-yloxy]-2,3-dihydro-benzo[1,4]oxazin-4-yl}-nicotinonitrile], the IC50 was 358 nM in experiment [1] and 8 nM in experiment [2].

What is called IC50 is the concentration that gives 50% inhibition.
